{"source": "paper PMC6704710", "about": "“Preclinical evaluation of 3D185, a novel potent inhibitor of FGFR1/2/3 and CSF-1R, in FGFR-dependent and macrophage-dominant cancer models” (Journal of Experimental & Clinical Cancer Research : CR, 2019)", "assay_in_all_cases": "Eurofins kinase panel", "assay_type_in_all_cases": "biochemical", "key": {"FGFR3(h)": {"target": "FGFR3(h) (Homo sapiens, UniProt P22607)", "sequence (P22607 23-806)": "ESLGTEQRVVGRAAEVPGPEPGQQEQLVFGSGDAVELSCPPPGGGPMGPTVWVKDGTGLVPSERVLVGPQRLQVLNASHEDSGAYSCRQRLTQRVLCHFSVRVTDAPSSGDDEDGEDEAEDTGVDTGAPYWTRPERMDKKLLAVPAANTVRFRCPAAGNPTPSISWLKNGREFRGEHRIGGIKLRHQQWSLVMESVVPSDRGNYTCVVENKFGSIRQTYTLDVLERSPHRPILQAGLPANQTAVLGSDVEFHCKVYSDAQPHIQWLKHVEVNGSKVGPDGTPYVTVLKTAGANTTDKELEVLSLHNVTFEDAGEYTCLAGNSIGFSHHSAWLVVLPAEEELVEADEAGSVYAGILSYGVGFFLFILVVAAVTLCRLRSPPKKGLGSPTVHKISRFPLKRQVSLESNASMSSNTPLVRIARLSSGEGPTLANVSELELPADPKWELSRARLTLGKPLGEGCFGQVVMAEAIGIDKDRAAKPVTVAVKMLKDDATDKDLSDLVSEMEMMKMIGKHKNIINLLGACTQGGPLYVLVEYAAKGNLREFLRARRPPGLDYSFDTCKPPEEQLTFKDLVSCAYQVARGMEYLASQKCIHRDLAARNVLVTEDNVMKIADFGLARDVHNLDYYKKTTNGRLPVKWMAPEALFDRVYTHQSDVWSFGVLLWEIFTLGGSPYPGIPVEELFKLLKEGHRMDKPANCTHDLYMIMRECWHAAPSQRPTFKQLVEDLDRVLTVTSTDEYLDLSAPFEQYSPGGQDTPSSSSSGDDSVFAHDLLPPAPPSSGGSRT"}, "PKCβI(h)": {"target": "T1, PKCβI(h) (Homo sapiens, UniProt P05771)", "T1 construct": "purchased Eurofins (KinaseProfiler)", "T1 sequence (P05771 whole entry)": "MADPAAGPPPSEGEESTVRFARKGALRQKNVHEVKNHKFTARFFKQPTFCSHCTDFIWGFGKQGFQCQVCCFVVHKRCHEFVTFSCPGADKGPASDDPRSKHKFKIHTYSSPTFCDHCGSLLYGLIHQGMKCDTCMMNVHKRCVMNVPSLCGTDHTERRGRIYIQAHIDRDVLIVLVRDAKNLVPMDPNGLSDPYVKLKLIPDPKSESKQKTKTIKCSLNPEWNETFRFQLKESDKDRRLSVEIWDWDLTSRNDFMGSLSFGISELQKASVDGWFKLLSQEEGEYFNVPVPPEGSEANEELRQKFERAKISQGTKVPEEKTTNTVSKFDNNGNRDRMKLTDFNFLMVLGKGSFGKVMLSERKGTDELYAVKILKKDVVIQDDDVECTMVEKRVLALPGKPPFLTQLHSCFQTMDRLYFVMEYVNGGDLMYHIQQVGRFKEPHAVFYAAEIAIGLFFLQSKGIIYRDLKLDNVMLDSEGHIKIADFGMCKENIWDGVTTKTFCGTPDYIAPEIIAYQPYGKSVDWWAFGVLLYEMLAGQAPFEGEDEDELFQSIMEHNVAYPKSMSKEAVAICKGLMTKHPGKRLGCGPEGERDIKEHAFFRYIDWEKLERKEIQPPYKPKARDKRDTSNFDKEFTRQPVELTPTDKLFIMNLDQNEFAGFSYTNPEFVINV", "conditions": "read-out: Inhibition rate (%)"}, "MEKK2(h)": {"target": "T2, MEKK2(h) (Homo sapiens, UniProt Q9Y2U5)", "T2 construct": "purchased Eurofins (KinaseProfiler)", "T2 sequence (Q9Y2U5 1-619)": "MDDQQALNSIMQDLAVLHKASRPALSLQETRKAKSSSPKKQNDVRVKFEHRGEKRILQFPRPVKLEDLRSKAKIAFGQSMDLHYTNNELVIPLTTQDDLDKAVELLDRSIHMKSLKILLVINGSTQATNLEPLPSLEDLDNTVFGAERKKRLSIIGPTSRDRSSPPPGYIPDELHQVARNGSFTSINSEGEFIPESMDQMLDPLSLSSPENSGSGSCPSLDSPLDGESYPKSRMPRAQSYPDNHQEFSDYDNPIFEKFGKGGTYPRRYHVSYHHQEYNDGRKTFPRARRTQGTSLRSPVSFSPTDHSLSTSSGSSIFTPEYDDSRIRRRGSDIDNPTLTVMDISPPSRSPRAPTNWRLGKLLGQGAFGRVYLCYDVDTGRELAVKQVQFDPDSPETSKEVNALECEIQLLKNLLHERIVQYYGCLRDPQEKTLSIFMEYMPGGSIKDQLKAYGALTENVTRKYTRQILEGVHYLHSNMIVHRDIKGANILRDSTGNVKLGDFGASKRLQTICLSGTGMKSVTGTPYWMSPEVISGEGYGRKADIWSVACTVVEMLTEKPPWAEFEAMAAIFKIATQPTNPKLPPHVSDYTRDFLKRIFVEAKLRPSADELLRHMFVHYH", "conditions": "read-out: Inhibition rate (%)"}, "PAK2(h)": {"target": "T3, PAK2(h) (Homo sapiens, UniProt Q13177)", "T3 construct": "purchased Eurofins (KinaseProfiler)", "T3 sequence (Q13177 whole entry)": "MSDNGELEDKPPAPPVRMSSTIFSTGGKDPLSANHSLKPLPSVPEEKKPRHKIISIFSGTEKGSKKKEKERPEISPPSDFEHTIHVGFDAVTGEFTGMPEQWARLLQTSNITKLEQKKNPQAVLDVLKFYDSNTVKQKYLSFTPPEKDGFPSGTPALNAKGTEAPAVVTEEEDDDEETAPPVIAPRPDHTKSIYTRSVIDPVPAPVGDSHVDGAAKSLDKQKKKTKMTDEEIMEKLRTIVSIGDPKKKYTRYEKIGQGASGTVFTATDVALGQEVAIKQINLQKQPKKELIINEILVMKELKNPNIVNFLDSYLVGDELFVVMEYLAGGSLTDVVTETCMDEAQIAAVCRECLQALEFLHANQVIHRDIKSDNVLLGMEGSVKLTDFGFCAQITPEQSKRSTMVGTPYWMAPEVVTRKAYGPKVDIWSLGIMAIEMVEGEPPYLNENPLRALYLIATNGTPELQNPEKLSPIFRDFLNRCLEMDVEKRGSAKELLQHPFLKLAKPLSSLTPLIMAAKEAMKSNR", "conditions": "read-out: Inhibition rate (%)"}, "GRK3(h)": {"target": "T4, GRK3(h) (Homo sapiens, UniProt P35626)", "T4 construct": "purchased Eurofins (KinaseProfiler)", "T4 sequence (P35626 1-688)": "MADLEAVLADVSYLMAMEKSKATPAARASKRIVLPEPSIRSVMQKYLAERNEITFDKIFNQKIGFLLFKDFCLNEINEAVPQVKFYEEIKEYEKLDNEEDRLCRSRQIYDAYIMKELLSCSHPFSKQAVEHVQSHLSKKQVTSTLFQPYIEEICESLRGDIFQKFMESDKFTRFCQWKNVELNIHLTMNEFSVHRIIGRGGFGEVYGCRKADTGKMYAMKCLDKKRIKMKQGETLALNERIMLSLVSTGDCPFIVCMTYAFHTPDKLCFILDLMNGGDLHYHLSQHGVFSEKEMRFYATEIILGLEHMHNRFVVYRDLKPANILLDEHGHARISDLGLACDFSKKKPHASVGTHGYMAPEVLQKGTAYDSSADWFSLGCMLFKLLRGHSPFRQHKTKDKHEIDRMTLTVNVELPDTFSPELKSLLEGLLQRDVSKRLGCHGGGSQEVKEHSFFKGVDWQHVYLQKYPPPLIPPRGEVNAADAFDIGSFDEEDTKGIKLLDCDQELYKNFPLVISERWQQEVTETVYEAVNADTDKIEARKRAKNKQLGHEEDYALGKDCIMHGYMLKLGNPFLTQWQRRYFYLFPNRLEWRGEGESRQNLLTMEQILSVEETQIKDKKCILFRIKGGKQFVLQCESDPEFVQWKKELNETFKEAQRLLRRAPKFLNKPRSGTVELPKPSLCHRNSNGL", "conditions": "read-out: Inhibition rate (%)"}, "SBK1(h)": {"target": "T5, SBK1(h) (Homo sapiens, UniProt Q52WX2)", "T5 construct": "purchased Eurofins (KinaseProfiler)", "T5 sequence (Q52WX2 whole entry)": "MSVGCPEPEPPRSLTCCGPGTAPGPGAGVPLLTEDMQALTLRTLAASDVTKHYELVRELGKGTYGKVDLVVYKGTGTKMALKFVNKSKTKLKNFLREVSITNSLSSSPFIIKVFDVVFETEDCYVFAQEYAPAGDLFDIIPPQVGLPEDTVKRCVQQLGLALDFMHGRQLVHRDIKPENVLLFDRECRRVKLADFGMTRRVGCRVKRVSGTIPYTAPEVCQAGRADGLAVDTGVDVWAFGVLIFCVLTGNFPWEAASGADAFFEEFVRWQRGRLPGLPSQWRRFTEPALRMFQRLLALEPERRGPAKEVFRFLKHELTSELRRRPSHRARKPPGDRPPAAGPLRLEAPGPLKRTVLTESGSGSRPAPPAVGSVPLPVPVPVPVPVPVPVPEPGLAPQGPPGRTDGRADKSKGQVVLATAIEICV", "conditions": "read-out: Inhibition rate (%)"}, "CDK2/cyclinA(h)": {"target": "T6, CDK2/cyclinA(h) (Homo sapiens, UniProt P24941)", "T6 construct": "purchased Eurofins (KinaseProfiler)", "conditions": "read-out: Inhibition rate (%)"}}, "data": [{"smiles": "COc1cc(OC)c(Cl)c(-c2ccc3c(NC(=O)c4ccc(N5CCNC(C)(C)C5)cc4)n[nH]c3n2)c1Cl", "note": "[3D185]", "values": [{"measurement": "IC50", "setting": "FGFR3(h); estimated from 372-kinase panel", "result": "< 10", "unit": "nM"}, {"measurement": "inhibition at 0.01 µM", "setting": "FGFR3(h); read-out: Inhibition rate (%)", "result": 94, "unit": "%"}, {"measurement": "inhibition at 0.1 µM", "setting": "FGFR3(h); read-out: Inhibition rate (%)", "result": 99, "unit": "%"}, {"measurement": "inhibition at 1 µM", "setting": "FGFR3(h); read-out: Inhibition rate (%)", "result": 100, "unit": "%"}, {"measurement": "inhibition at 0.01 µM", "setting": "PKCβI(h); 10 nM", "result": -7, "unit": "%"}, {"measurement": "inhibition at 0.1 µM", "setting": "PKCβI(h); 100 nM", "result": -3, "unit": "%"}, {"measurement": "inhibition at 1 µM", "setting": "PKCβI(h); 1000 nM", "result": -1, "unit": "%"}, {"measurement": "inhibition at 0.01 µM", "setting": "MEKK2(h); 10 nM", "result": 34, "unit": "%"}, {"measurement": "inhibition at 0.1 µM", "setting": "MEKK2(h); 100 nM", "result": 85, "unit": "%"}, {"measurement": "inhibition at 1 µM", "setting": "MEKK2(h); 1000 nM", "result": 97, "unit": "%"}, {"measurement": "inhibition at 0.01 µM", "setting": "PAK2(h); 10 nM", "result": 5, "unit": "%"}, {"measurement": "inhibition at 0.1 µM", "setting": "PAK2(h); 100 nM", "result": -5, "unit": "%"}, {"measurement": "inhibition at 1 µM", "setting": "PAK2(h); 1000 nM", "result": -5, "unit": "%"}, {"measurement": "inhibition at 0.01 µM", "setting": "GRK3(h); 10 nM", "result": 6, "unit": "%"}, {"measurement": "inhibition at 0.1 µM", "setting": "GRK3(h); 100 nM", "result": 3, "unit": "%"}, {"measurement": "inhibition at 1 µM", "setting": "GRK3(h); 1000 nM", "result": 3, "unit": "%"}, {"measurement": "inhibition at 0.01 µM", "setting": "SBK1(h); 10 nM", "result": -13, "unit": "%"}, {"measurement": "inhibition at 0.1 µM", "setting": "SBK1(h); 100 nM", "result": -3, "unit": "%"}, {"measurement": "inhibition at 1 µM", "setting": "SBK1(h); 1000 nM", "result": -10, "unit": "%"}, {"measurement": "inhibition at 0.01 µM", "setting": "CDK2/cyclinA(h); 10 nM", "result": 2, "unit": "%"}, {"measurement": "inhibition at 0.1 µM", "setting": "CDK2/cyclinA(h); 100 nM", "result": 7, "unit": "%"}, {"measurement": "inhibition at 1 µM", "setting": "CDK2/cyclinA(h); 1000 nM", "result": -3, "unit": "%"}]}]}
